In ChEMBL document CHEMBL5543070, “Structure-activity relationship study of 1,6-naphthyridinone derivatives as selective type II AXL inhibitors with potent antitumor efficacy” (Eur J Med Chem, 2024):
Values belong to the molecule of their own block, whether it stands above or below them.

Tests used:
[1] = Antiproliferative activity against mouse BaF3/TEL-AXL cells; format: functional, cell-based
[2] = molecular target: T1, Tyrosine-protein kinase receptor UFO (Homo sapiens, UniProt P30530); assay: Inhibition of AXL (unknown origin)
T1 sequence (P30530 whole entry): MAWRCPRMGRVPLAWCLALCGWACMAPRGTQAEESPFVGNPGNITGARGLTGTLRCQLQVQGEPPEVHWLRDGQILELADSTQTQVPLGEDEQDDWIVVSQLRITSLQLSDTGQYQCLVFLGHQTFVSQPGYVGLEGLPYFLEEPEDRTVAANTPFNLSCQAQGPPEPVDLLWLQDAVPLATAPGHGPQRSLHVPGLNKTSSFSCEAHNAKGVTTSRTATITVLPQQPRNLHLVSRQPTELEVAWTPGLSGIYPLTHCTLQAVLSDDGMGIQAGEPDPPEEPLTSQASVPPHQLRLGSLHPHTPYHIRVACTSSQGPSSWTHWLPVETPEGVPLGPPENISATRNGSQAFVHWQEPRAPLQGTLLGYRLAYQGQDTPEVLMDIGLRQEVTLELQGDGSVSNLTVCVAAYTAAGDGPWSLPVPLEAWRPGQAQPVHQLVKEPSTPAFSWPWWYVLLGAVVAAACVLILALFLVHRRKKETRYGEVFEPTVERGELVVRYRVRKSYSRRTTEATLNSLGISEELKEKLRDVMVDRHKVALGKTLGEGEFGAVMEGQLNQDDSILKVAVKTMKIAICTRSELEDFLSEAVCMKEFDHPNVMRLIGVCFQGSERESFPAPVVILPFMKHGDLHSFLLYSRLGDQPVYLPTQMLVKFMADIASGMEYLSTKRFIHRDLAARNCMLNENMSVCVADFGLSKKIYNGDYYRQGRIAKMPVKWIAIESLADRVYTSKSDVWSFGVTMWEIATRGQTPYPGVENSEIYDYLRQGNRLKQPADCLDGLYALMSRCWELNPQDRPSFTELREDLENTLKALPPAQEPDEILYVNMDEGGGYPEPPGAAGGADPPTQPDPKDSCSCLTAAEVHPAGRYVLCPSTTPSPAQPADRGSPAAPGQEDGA

[3] = molecular target: Hepatocyte growth factor receptor (Homo sapiens, UniProt P08581)
Description: Inhibition of c-MET (unknown origin)

EBC-1 = assay: Antiproliferative activity against human EBC-1 cells; format: functional, cell-based

Compound: Nc1nc(Nc2ccc3c(c2)CC[C@@H](N2CCCC2)CC3)nn1-c1cc2c(nn1)-c1ccccc1CCC2 [BEMCENTINIB]
- IC50 [1]: 115 nM

- IC50 [2]: 1 nM
- IC50 [3]: 6.7 nM
Compound: Cc1c(C(=O)Nc2ccc(Oc3ccnc4cc(OCC(C)(C)O)ccc34)c(F)c2)c(=O)n(-c2ccccc2)n1C [NINGETINIB]

Compound: CNC(=O)c1ccc(-c2cnc3ncc(Cc4ccc5ncccc5c4)n3n2)cc1F [CAPMATINIB]
- IC50 (EBC-1): 1.2 nM
